These results are taken from patent US20040121965A1, “Method of treating resistant tumors” (Wyeth Holdings Corporation, priority 2002, published 2004).

The test system of one assay is KB-3-1. Kind of assay: Cell survival assay (SRB), KB-3-1. It counts as cell-based, human. To be noted: Homo sapiens, KB 3-1, KB-3-1 cells (paclitaxel-sensitive parent); read-out: In vitro IC50 (nM) KB-3-1. In a few lines:
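Cells were exposed to serially diluted compound in duplicate for 3 days. Survival was read as protein content by SRB (TCA fixation 1 hr at 4 °C, 0.04% SRB stain, dissolved in 10 mM Tris, absorbance). KB-3-1 was grown in 20% FCS. IC50 is the concentration giving 50% growth inhibition.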

The test system of another assay is KB-8-5 (MDR1+). In words: Cell survival assay (SRB), KB-8-5 (MDR1+). To be noted: for IC50: Homo sapiens, MDR1, read-out: In vitro IC50 (nM) KB85.
The next assay deals with KB-V1 (MDR1++). Kind of assay: Cell survival assay (SRB), KB-V1 (MDR1++). To be noted: for IC50: Homo sapiens, read-out: In vitro IC50 (nM) KBV1.

Molecules are shown by their SMILES.

For orientation: IC50 means the concentration that inhibits the measured activity by half. For `CNC(C(=O)NC(C(=O)N(C)C(C=C(C)C(=O)O)C(C)C)C(C)(C)C)C(C)c1ccccc1.O=C(O)C(F)(F)F` (stereo not drawn) [Example 100, 4-{[3,3-Dimethyl-2-(2-methylamino-3-phenyl-butyrylamino)-butyryl]-methyl-amino}-2,5-dimethyl-hex-2-enoic Acid Trifluoroacetic Acid], the concentration for half-maximal inhibition (IC50) in the assay on KB-3-1 is 114 nM; in the assay on KB-8-5 (MDR1+), 197 nM; in the assay on KB-V1 (MDR1++) it was at least 3000 nM. For the same compound, in the assay with KB-8-5 (MDR1+), the “Ratio KB85/KB” value is on record as 1.7. In addition, in the assay with KB-V1 (MDR1++), the “Ratio KBV1/KB” value is 26.2.
The matching figures for `CN[C@H](C(=O)N[C@H](C(=O)N(C)[C@H](/C=C(\C)C(=O)O)C(C)C)C(C)(C)C)C(C)(C)C` [Example 140, N,3-dimethyl-L-valyl-N^1-[(1S,2E)-3-carboxy-1-isopropyl-2-butenyl]-N^1,3-dimethyl-L-valinamide]: 114 nM, 181 nM, at least 3000 nM, 1.6 and 26.4.
The matching figures for `CCOC(=O)/C(C)=C/[C@H](C(C)C)N(C)C(=O)[C@@H](NC(=O)[C@@H](NC)C(C)(C)c1ccc(C)cc1)C(C)(C)C` [Example 10a, N,β,β,4-Tetramethyl-L-phenylalanyl-N^1-[(1S,2E)-4-ethoxy-1-isopropyl-3-methyl4-oxo-2-butenyl]-N^1,3-dimethyl-L-valinamide]: 33.9 nM, 525 nM, 1780 nM, 15.5 and 52.4.
For the compound `CN[C@H](C(=O)N[C@H](C(=O)N(C)[C@H](/C=C(\C)C(=O)O)C(C)C)C(C)(C)F)C(C)(C)c1ccccc1` [Example 149, N,β,β-trimethyl-L-phenylalanyl-N^1-[(1S,2E)-3-carboxy-1-isopropylbut-2-enyl]-3-fluoro-N^1-methyl-L-valinamide], the results for the 50% inhibitory concentration (IC50) in the assay on KB-3-1, in the assay on KB-8-5 (MDR1+) and with KB-V1 (MDR1++) were 1.6 nM, 3.5 nM and 117 nM, respectively. In the assay on KB-8-5 (MDR1+), the “Ratio KB85/KB” value turned out to be 2.2.
Regarding `CN[C@H](C(=O)N[C@H](C(=O)N(C)[C@H](/C=C(\C)C(=O)O)Cc1ccccc1)C(C)(C)C)C(C)(C)c1ccccc1` [Example 136, (E,4S)-4-[((2S)-3,3-dimethyl-2-{[(2S)-3-methyl-2-(methylamino)-3-phenylbutanoyl]amino}butanoyl)(methyl)amino]-2-methyl-5-phenyl-2-pentenoic Acid], the half-maximal inhibitory concentration (IC50) in the assay on KB-3-1 came to 479 nM. Besides, in the assay on KB-8-5 (MDR1+), the “Ratio KB85/KB” value amounted to 2.8 and the IC50 was 1320 nM. Besides, in the assay on KB-V1 (MDR1++), the “Ratio KBV1/KB” value was found to be 6.3 and the 50% inhibitory concentration (IC50) was at least 3000 nM.
In the same order, the values of `CCOC(=O)/C(C)=C/[C@H](C(C)C)N(C)C(=O)[C@@H](NC(=O)[C@@H](NC)C(C)(C)c1cccc(Cl)c1)C(C)(C)C` [Example 1a, 3-Chloro-N,β,β-trimethyl-L-phenylalanyl-N^1-[(1S,2E)4-ethoxy-1-isopropyl-3-methyl-4-oxo-2-butenyl]-N^1,3-dimethyl-L-valinamide] are 562 nM, 3.1, 1740 nM, 5.3 and at least 3000 nM.
The matching figures for `CN[C@H](C(=O)N[C@H](C(=O)N(C)[C@H](/C=C(\C)C(=O)O)C(C)C)C(C)(C)C)C(C)(C)c1cc2ccccc2s1` [Example 28, 3-(1-Benzothien-2-yl)-N-methylvalyl-N^1-[(1S,2E)-3-carboxy-1-isopropyl-2-butenyl]-N^1,3-dimethyl-L-valinamide]: 2.55 nM, 1.8, 4.6 nM, 54.4 and 139 nM.
On to `CN[C@H](C(=O)N[C@H](C(=O)N[C@H](/C=C(\C)C(=O)O)C(C)C)C(C)C)C(C)(C)c1ccccc1.O=C(O)C(F)(F)F` [Example 102, N,β,β-trimethyl-L-phenylalanyl-N^1-[(1S,2E)-3-carboxy-1-isopropylbut-2-enyl]-L-valinamide Trifluoroacetic Acid], for which the half-maximal inhibitory concentration (IC50) in the assay with KB-3-1 was 371 nM. Besides, in the assay with KB-8-5 (MDR1+), the “Ratio KB85/KB” value is 1.7 and the IC50 turned out to be 618 nM. Also, in the assay with KB-V1 (MDR1++), the “Ratio KBV1/KB” value was 8.1 and the half-inhibitory concentration (IC50) was at least 3000 nM.
In the same order, the values of `CNC(C(=O)N[C@H](C(=O)N(C)[C@@H](/C=C(\C)C(=O)O)C(C)C)C(C)(C)C)C1(c2ccccc2)CCCCC1` (stereo partly drawn) [Example 73, (2E,4R)-2,5-dimethyl4-(methyl{3-methyl-N-[(methylamino)(1-phenylcyclohexyl)acetyl]-L-valyl}amino)-2-hexenoic Acid] are 204 nM, 1.8, 363 nM, 14.7 and at least 3000 nM.
With `C/C(=C\[C@H](C(C)C)N(C)C(=O)[C@@H](NC(=O)[C@@H](N(C)CCO)C(C)(C)c1ccccc1)C(C)(C)C)C(=O)O` [Example 53, N-(2-hydroxyethyl)-N,β,β-trimethyl-L-phenylalanyl-N^1-[(1S,2E)-3-carboxy-1-isopropylbut-2-enyl]-N^1,3-dimethyl-L-valinamide], the results for the IC50 with KB-3-1, in the assay on KB-8-5 (MDR1+) and with KB-V1 (MDR1++) were 44.7 nM, 61.7 nM and at least 3000 nM, respectively. Further, in the assay on KB-8-5 (MDR1+), the “Ratio KB85/KB” value came to 1.4. Also, the “Ratio KBV1/KB” value with KB-V1 (MDR1++) is given as 67.1.
The matching figures for `CN[C@H](C(=O)N[C@H](C(=O)N(C)[C@H](/C=C(\C)C(=O)O)C(C)C)C(C)(C)c1ccc(OC)cc1)C(C)(C)c1ccccc1` [Example 87, N,β,β-trimethyl-L-phenylalanyl-N-[(1S,2E)-3-carboxy-1-isopropyl-2-butenyl]-N,O,β,β-tetramethyl-L-tyrosinamide]: 27.2 nM, 56.3 nM, 1970 nM, 2.1 and 72.4.
On to `CCOC(=O)/C(C)=C/[C@H](C(C)C)N(C)C(=O)[C@@H](NC(=O)[C@@H](NC)C(C)(C)c1cccc(C)c1)C(C)(C)C` [Example 7a, N,β,β,3-Tetramethyl-L-phenylalanyl-N^1-[(1S,2E)4-ethoxy-1-isopropyl-3-methyl-4-oxo-2-butenyl]-N^1,3-dimethyl-L-valinamide], for which the IC50 with KB-3-1 stood at 21.9 nM. In the assay on KB-8-5 (MDR1+), the “Ratio KB85/KB” value came to 24.0 and the concentration for half-maximal inhibition (IC50) was determined as 525 nM. Further, in the assay with KB-V1 (MDR1++), the “Ratio KBV1/KB” value is given as 110.0 and the IC50 is 2410 nM.
Turning to `CN[C@H](C(=O)N[C@H](C(=O)N(C)[C@H](/C=C(\C)C(=O)O)C(C)C)[C@H](C)O)C(C)(C)c1ccccc1` [Example 86, N,β,β-trimethyl-L-phenylalanyl-N^1-[(1S,2E)-3-carboxy-1-isopropyl-2-butenyl]-N^1-methyl-L-allothreoninamide], the concentration for half-maximal inhibition (IC50) in the assay with KB-3-1 turned out to be 311 nM. In addition, in the assay on KB-8-5 (MDR1+), the “Ratio KB85/KB” value was found to be 2.2 and the half-maximal inhibitory concentration (IC50) amounted to 669 nM. Moreover, in the assay on KB-V1 (MDR1++), the “Ratio KBV1/KB” value is reported as 9.7 and the half-maximal inhibitory concentration (IC50) is at least 3000 nM.
The matching figures for `CCOC(=O)/C(C)=C/[C@H](C(C)C)N(C)C(=O)[C@@H](NC(=O)[C@@H](NC)C(C)(C)c1ccccc1)C(C)(C)SC` [Example 79, Ethyl (E,4S)-2,5-dimethyl-4-{methyl[(2R)-3-methyl-2-{[(2S)-3-methyl-2-(methylamino)-3-phenylbutanoyl]amino}-3-(methylsulfanyl)butanoyl]amino}-2-hexenoate]: 449 nM, 3.2, 1420 nM, 5.4 and 2440 nM.
